Laboratory results as given in patent publication US11786497B2, “High penetration prodrug compositions of retinoids and retinoids-related compounds” (Techfields Pharma Co., Ltd., priority 2007, dated 2023).
Blank lines part the entries; values can stand above or below the molecule they belong to.

Columns and labels:
[1] = system: human acute promyelocytic leukemia(APL) line; assay: Survival of mice implanted with human acute promyelocytic leukemia line; assay type: in vivo; settings: for None Disease Rate at day 160: animals out of 7; for Life Elongation Rate: control = 100; for Survival Period: n=7
From the text: For evaluation of antitumor activity, a human acute promyelocytic leukemia(APL) line derived from a patient with acute promyelocytic leukemia (APL) was implanted into mice.

[2] = system: Lesions similar to psoriasis induced by Malassezia; assay: Malassezia-induced lesions similar to psoriasis on rabbit skin; assay type: in vivo, Chinese white rabbits; settings: 200 μl of 0.05% aqueous solution, topical twice per day, 3 hours after Malassezia; control lesions became worse
From the text: Heavy suspensions of Malassezia [Rosenberg, E. W., et al., Mycopathologia, 72, 147-154 (1980)] were applied to shaved skin on the backs of Chinese white rabbits (n=4×10) twice (at 7 am and 7 pm respectively) per day for 2 weeks. […] The control group was only applied with Malassezia.

[3] = In vitro penetration across human skin in modified Franz cells
Description: In each case, the vehicle was a pH 7.4 phosphate buffer (0.2 M).
Penetration rates of HPPs and their parent drugs through human skin were measured in vitro by modified Franz cells. A Franz cell had two chambers, the top sample chamber and the bottom receiving chamber. The human skin tissue (360-400 μm thick) that separated the top and the receiving chambers was isolated from the anterior or posterior thigh areas.
A compound tested (0.2 mL, 5% in 0.2 M phosphate buffer, pH 7.4) were added to the sample chamber of a Franz cell. The receiving chamber contains 2 ml of 2% bovine serum albumin in saline which was stirred at 600 rpm. The amount of the tested compound penetrating the skin was determined by high-performance liquid chromatography (HPLC) method.

[4] = Irritative effect or discomfort on skin of mice after topical application; assay type: in vivo; settings: 0.1 ml of 0.5% in pH 7.4 phosphate buffer to back of nude mice twice per day, 1 week
Description: Irritative effect or discomfort in the skin of mice of HPPs of retinoids or retinoid-related compounds was evaluated during a period of 1 week after the topical application of 0.1 ml of 0.5% of the respective test drug in pH 7.4 phosphate buffer (0.2 M) to the back of nude mice twice per day.

[5] = Conversion of HPPs to parent drugs in human plasma (half life); assay type: in vitro ADME; settings: 37° C., HPLC
Description: HPPs of retinoids or retinoid-related compounds converted to the parent retinoids or retinoid-related compounds quickly in good yield in human plasma.
A HPP of retinoids or retinoid-related compound (10 mg) was dissolved in 0.1 ml of 0.2M pH 7.4 phosphate buffer. 1 ml of human plasma, preheated to 37° C., was added into the mixture. The mixture was kept in a water bath at 37° C., and at every 2 min intervals 0.2 ml of samples were withdrawn and added to 0.4 ml of methanol to precipitate the plasma protein. The samples were centrifuged for 5 min and analyzed by HPLC.

[6] = system: human breast cancer cells (BCAP-37); assay: Antitumor activity against human breast cancer cells implanted into nude mice; assay type: in vivo, nude mice (BALB); settings: 50 μl of 1% in 0.2M pH 7.4 phosphate buffer, topically to implanted area twice per day from day 3; control 100% incidence
From the text: For evaluation of antitumor activity of these prodrugs, human breast cancer cells (BCAP-37) were implanted into nude mice (BALB). […] The average weight of the treated group was 25 grams and that of the control group was 21 grams.

Solubility in water = assay type: physicochemical
Description: (§1) 30 g (0.1 mol) of sodium 9-cis-retinoate was dissolved in 100 ml of acetonitrile. 26.1 g (0.1 mol) of 2-Bromo-N,N-diethylethylamine·HBr was added into the reaction mixture. The mixture was stirred for overnight at RT. The solvents were evaporated off. 200 ml of ethanol was added into the residue. The solid was removed by filtration. The solution was evaporated to dryness. 100 ml of ethyl acetate was added into the reaction mixture. Hexane (100 ml) was added. The solid product was collected by filtration. After drying, it yielded 36 g of the desired product (75%). Hygroscopic product; solubility in water: 30 mg/ml; elementary analysis: C26H42BrNO2; MW: 480.52; calculated % C: 64.99; H: 8.81; Br: 16.63; N: 2.91; O: 6.66; found % C: 65.03; H: 8.80; Br: 16.60; N: 2.89; O: 6.68.
as §1, with “13-cis-retinoate” for “9-cis-retinoate”, “Hygroscopic product; solubility in water: 30 mg/ml; elementary analysis: C26H42BrNO2; MW: 480.52; calculated % C: 64.99; H: 8.81; Br: 16.63; N: 2.91; O: 6.66; found % C: 65.03; H: 8.80; Br: 16.60; N: 2.89; O: 6.68.” left out

[7] = 10 mg/kg per day, transdermally
[8] = parent compound, 5% suspension in pH 7.4 phosphate buffer (0.2 M), isolated human skin, Franz cells, n=5

- In vitro Penetration Rate (apparent flux) of HPPs ([3]; HPP, 5% solution in pH 7.4 phosphate buffer (0.2 M), isolated human skin, Franz cells, n=5): 0.67 mg/cm^2/h
SMILES: Br.CC1=C(/C=C/C(C)=C\C=C\C(C)=C\C(=O)OCCN2CCCCC2)C(C)(C)CCC1 [9-cis-retinoic acid 1-piperidineethyl ester·HBr]

- In vitro Penetration Rate (apparent flux) of HPPs ([3]; pH 7.4): 0.35 mg/cm^2/h
- Half life of HPPs in plasma [5]: 15 ± 1 min
SMILES: C=C(c1ccc(C(=O)OCCN(CC)CC)cc1)c1cc2c(cc1C)C(C)(C)CCC2(C)C.Cl [N,N-diethylaminoethyl 4-[1-(5,6,7,8-tetrahydro-3,5,5,8,8-pentamethyl-2-naphthalenyl)ethenyl]benzoate·HCl]
- signs of irritative effect or discomfort [4]: None of any signs of irritative effect or discomfort
- tumor seen after 20 days [6]: none of tumor was seen

- solubility in water (Solubility in water): 30 mg/mL
- Half life of HPPs in plasma [5]: 12 ± 1 min
SMILES: Br.CCN(CC)CCOC(=O)/C=C(C)/C=C/C=C(C)\C=C\C1=C(C)CCCC1(C)C [N,N-diethylaminoethyl 9-cis-retinoate·HBr]
- signs of irritative effect or discomfort [4]: None of any signs of irritative effect or discomfort
- tumor seen after 20 days [6]: none of tumor was seen
- lesions 10 days after application of Malassezia and HPP [2]: resolved

- solubility in water (Solubility in water): 30 mg/mL
- In vitro Penetration Rate (apparent flux) of HPPs ([3]; pH 7.4): 0.85 mg/cm^2/h
- Half life of HPPs in plasma [5]: 13 ± 1 min
SMILES: Br.CCN(CC)CCOC(=O)\C=C(C)/C=C/C=C(C)/C=C/C1=C(C)CCCC1(C)C [N,N-diethylaminoethyl 13-cis-retinoate·HBr]
- signs of irritative effect or discomfort [4]: None of any signs of irritative effect or discomfort

- In vitro Penetration Rate (apparent flux) of HPPs ([3]; pH 7.4): 1.25 mg/cm^2/h
- Half life of HPPs in plasma [5]: 11 ± 1 min
SMILES: Br.CCN(CC)CCOC(=O)/C=C(C)/C=C/C=C(C)/C=C/C1=C(C)CCCC1(C)C [N,N-diethylaminoethyl all-trans-retinoate·HBr]
- signs of irritative effect or discomfort [4]: None of any signs of irritative effect or discomfort

- In vitro Penetration Rate (apparent flux) of HPPs ([3]; pH 7.4): 1.21 mg/cm^2/h
- Half life of HPPs in plasma [5]: 20 ± 1 min
SMILES: CC1=C(/C=C/C(C)=C/C=C/C(C)=C/COC(=O)CN(C)C)C(C)(C)CCC1.Cl [retinyl N,N-dimethyl-2-aminoacetate·HCl]
- signs of irritative effect or discomfort [4]: None of any signs of irritative effect or discomfort

Further lines, the molecule ahead of its results:

SMILES: C=C(c1ccc(C(=O)OCN2CCCC2)cc1)c1cc2c(cc1C)C(C)(C)CCC2(C)C.Cl
- None Disease Rate at day 160 ([1]; 5 mg/kg per day, transdermally): 5/7
- Life Elongation Rate ([1]; 5 mg/kg per day, transdermally): 306%
- Survival Period ([1]; 5 mg/kg per day, transdermally): 96.5 ± 4.4 days
- None Disease Rate at day 160 [1, 7]: 6/7
- Life Elongation Rate [1, 7]: 529%
- Survival Period [1, 7]: 166.5 ± 5.4 days

SMILES: Br.CC1=C(/C=C/C(C)=C/C=C/C(C)=C/C(=O)OCCN2CCCCC2)C(C)(C)CCC1
- None Disease Rate at day 160 ([1]; 5 mg/kg per day, transdermally): 4/7
- Life Elongation Rate ([1]; 5 mg/kg per day, transdermally): 278%
- Survival Period ([1]; 5 mg/kg per day, transdermally): 87.8 ± 3.4 days
- None Disease Rate at day 160 [1, 7]: 5/7
- Life Elongation Rate [1, 7]: 429%
- Survival Period [1, 7]: 135.2 ± 5.9 days
- lesions 10 days after application of Malassezia and HPP [2]: resolved

SMILES: Br.CC1=C(/C=C/C(C)=C\C=C\C(C)=C\C(=O)OCC2CCCN2)C(C)(C)CCC1 (stereo not drawn) [9-cis-retinoic acid 2-pyrrolidinemethyl ester·HBr]
- None Disease Rate at day 160 ([1]; 5 mg/kg per day, transdermally): 3/7
- Life Elongation Rate ([1]; 5 mg/kg per day, transdermally): 230%
- Survival Period ([1]; 5 mg/kg per day, transdermally): 72.5 ± 4.6 days
- None Disease Rate at day 160 [1, 7]: 5/7
- Life Elongation Rate [1, 7]: 385%
- Survival Period [1, 7]: 121.2 ± 4.8 days

SMILES: CC1=C(/C=C/C(C)=C\C=C\C(C)=C\C(=O)O)C(C)(C)CCC1 [9-cis-retinoic acid (alitretinoin), 9-cis-retinoic acid, reference compound]
- In vitro Penetration Rate (apparent flux) of Parent compounds [3, 8]: 0.005 mg/cm^2/h
- None Disease Rate at day 160 ([1]; 5 mg/kg per day, orally): 1/7
- Life Elongation Rate ([1]; 5 mg/kg per day, orally): 144%
- Survival Period ([1]; 5 mg/kg per day, orally): 45.5 ± 2.3 days
- None Disease Rate at day 160 ([1]; 10 mg/kg per day, orally): 3/7
- Life Elongation Rate ([1]; 10 mg/kg per day, orally): 207%
- Survival Period ([1]; 10 mg/kg per day, orally): 65.2 ± 4.1 days

SMILES: CC1=C(/C=C/C(C)=C/C=C/C(C)=C\C(=O)O)C(C)(C)CCC1 [13-cis-retinoic acid (isotretinoin), 13-cis-retinoic acid]
- In vitro Penetration Rate (apparent flux) of Parent compounds [3, 8]: 0.005 mg/cm^2/h

SMILES: CC1=C(/C=C/C(C)=C/C=C/C(C)=C/C(=O)O)C(C)(C)CCC1 [all-trans-retinoic acid (tretinoin), all-trans-retinoic acid, reference compound]
- In vitro Penetration Rate (apparent flux) of Parent compounds [3, 8]: 0.005 mg/cm^2/h
- None Disease Rate at day 160 ([1]; 5 mg/kg per day, orally): 0/7
- Life Elongation Rate ([1]; 5 mg/kg per day, orally): 158%
- Survival Period ([1]; 5 mg/kg per day, orally): 49.7 ± 3.6 days
- None Disease Rate at day 160 ([1]; 10 mg/kg per day, orally): 2/7
- Life Elongation Rate ([1]; 10 mg/kg per day, orally): 249%
- Survival Period ([1]; 10 mg/kg per day, orally): 78.5 ± 3.7 days

SMILES: C=C(c1ccc(C(=O)O)cc1)c1cc2c(cc1C)C(C)(C)CCC2(C)C [bexaroten (Targretin ®), reference compound]
- apparent flux value of parent drug ([3]; lowest detectable flux 1 μg/cm^2/h, considered not detectable): 1 μg/cm^2/h
- In vitro Penetration Rate (apparent flux) of Parent compounds [3, 8]: 0.001 mg/cm^2/h
- None Disease Rate at day 160 ([1]; 5 mg/kg per day, orally): 3/7
- Life Elongation Rate ([1]; 5 mg/kg per day, orally): 205%
- Survival Period ([1]; 5 mg/kg per day, orally): 64.5 ± 3.7 days
- None Disease Rate at day 160 ([1]; 10 mg/kg per day, orally): 5/7
- Life Elongation Rate ([1]; 10 mg/kg per day, orally): 302%
- Survival Period ([1]; 10 mg/kg per day, orally): 95.2 ± 3.9 days

SMILES: CC1=C(/C=C/C(C)=C/C=C/C(C)=C/CO)C(C)(C)CCC1 [vitamin A (retinol), retinol]
- In vitro Penetration Rate (apparent flux) of Parent compounds ([3]; human, 5 %, pH 7.4): 0.005 mg/cm^2/h
